Data reported in patent US20060147538A1, “Nanocomposite drug delivery composition” (THE QUEEN'S UNIVERSITY OF BELFAST, priority 2003, published 2006).

Assays:
[1] = Drug release studies, polymer-drug-clay disks (Example 3); assay type: physicochemical
From the text: In a one embodiment the discs were 18 mm in diameter and 1 mm thick. Different sizes or shapes of discs will influence the release rate of the drug.

[2] = Drug release studies, polymer-drug-clay extrudate (Example 3); assay type: physicochemical
From the text: PEGIB is PEG+ibuprofen, PEGIBM is PEG+ibuprofen+montmorillonite (natural clay) and PEGIBS is PEG+ibuprofen+synthetic clay. In one embodiment the extrudate is rod shaped with a diameter of 1 mm.
In one embodiment the extrudate is rod shaped with a diameter of 1 mm.

## CC(=O)Nc1ccc(O)cc1 [Paracetamol powder, paracetamol]
[1]; PCL-Paracetamol-Clay Disks
  Time 50% release: <5 min
  Time 80% release: <5 min
  Time 100% release: <5 min
[1]; PEG-Paracetamol-Clay Disks
  Time 50% release: <5 min
  Time 80% release: <5 min
  Time 100% release: <5 min
[2]; PCL-Paracetamol-Clay Extrudate
  Time 50% release: <5 min
  Time 80% release: <5 min
  Time 100% release: <5 min
[2]; PEG-Paracetamol-Clay Extrudate
  Time 50% release: <5 min
  Time 80% release: <5 min
  Time 100% release: <5 min

## CC(C)Cc1ccc(C(C)C(=O)O)cc1 (stereo not drawn) [Ibuprofen Powder, ibuprofen]
[1]; PEG-Ibuprofen-Clay Disks
  Time 50% release: <5 min
  Time 80% release: <5 min
  Time 100% release: 10 min
[2]; PEG-Ibuprofen-Clay Extrudate
  Time 50% release: <5 min
  Time 80% release: <5 min
  Time 100% release: 10 min
